Source: US8063048B2, “Acetylenyl-pyrazolo-pyrimidine derivatives” (Hoffmann-La Roche Inc., priority 2005, dated 2011)

Row | melting point | SMILES
1 | 294 °C | Cc1cc(-c2ccc(C(F)(F)F)cc2)cn2c(C#Cc3cncc(S(N)(=O)=O)c3)cnc12 [Example 229, 5-[8-Methyl-6-(4-trifluoromethyl-phenyl)-imidazo[1,2-a]pyridin-3-ylethynyl]-pyridine-3-sulfonic acid amide]
2 | 215 to 217 °C | Cc1cc(-c2ccc(Cl)cc2)cn2c(C#Cc3cncc(S(=O)(=O)NC(C)(C)CO)c3)cnc12 [Example 230, 5-[6-(4-Chloro-phenyl)-8-methyl-imidazo[1,2-a]pyridin-3-ylethynyl]-pyridine-3-sulfonic acid (2-hydroxy-1,1-dimethyl-ethyl)-amide]
3 | 267 °C | Nc1ccc(C#Cc2cnc3c(C(F)(F)F)cc(-c4ccc(C(F)(F)F)cc4)nn23)cn1 [Example 232, 5-[8-Trifluoromethyl-6-(4-trifluoromethyl-phenyl)-imidazo[1,2-b]pyridazin-3-ylethynyl]-pyridin-2-ylamine]
4 | 246 °C | Nc1ccc(C#Cc2cnc3c(C4CC4)cc(-c4ccc(Cl)cc4)cn23)cn1 [Example 233, 5-[6-(4-Chloro-phenyl)-8-cyclopropyl-imidazo[1,2-a]pyridin-3-ylethynyl]-pyridin-2-ylamine]
5 | 243 to 245 °C | Nc1ccc(C#Cc2cnn3c(C(F)(F)F)cc(-c4ccc(C(F)(F)F)cc4)cc23)cn1 [Example 235, 5-[7-Trifluoromethyl-5-(4-trifluoromethyl-phenyl)-pyrazolo[1,5-a]pyridin-3-ylethynyl]-pyridin-2-ylamine]
6 | 261 to 263 °C | NS(=O)(=O)c1ccc(C#Cc2cnc3c(C(F)(F)F)cc(-c4ccc(C(F)(F)F)cc4)nn23)s1 [Example 236, 5-[8-Trifluoromethyl-6-(4-trifluoromethyl-phenyl)-imidazo[1,2-b]pyridazin-3-ylethynyl]-thiophene-2-sulfonic acid amide]
7 | 241 to 244 °C | Nc1ccc(C#Cc2cnc3ccc(-c4ccc(C(F)(F)F)cc4)cn23)cn1 [Example 237, 5-[6-(4-Trifluoromethyl-phenyl)-imidazo[1,2-a]pyridin-3-ylethynyl]-pyridin-2-ylamine]
8 | 244 to 246 °C | Nc1ncc(C#Cc2cnc3ccc(-c4ccc(C(F)(F)F)cc4)cn23)cn1 [Example 238, 5-[6-(4-Trifluoromethyl-phenyl)-imidazo[1,2-a]pyridin-3-ylethynyl]-pyrimidin-2-ylamine]
9 | 281 to 282 °C | Nc1ccc(C#Cc2cnc3c(F)cc(-c4ccc(C(F)(F)F)cc4)cn23)cn1 [Example 239, 5-[8-Fluoro-6-(4-trifluoromethyl-phenyl)-imidazo[1,2-a]pyridin-3-ylethynyl]-pyridin-2-ylamine]
10 | 286 °C | Nc1ncc(C#Cc2cnc3c(F)cc(-c4ccc(C(F)(F)F)cc4)cn23)cn1 [Example 240, 5-[8-Fluoro-6-(4-trifluoromethyl-phenyl)-imidazo[1,2-a]pyridin-3-ylethynyl]-pyrimidin-2-ylamine]
11 | 259 °C | Nc1ccc(C#Cc2cnc3c(F)cc(-c4ccc(Cl)cc4)cn23)cn1 [Example 241, 5-[6-(4-Chloro-phenyl)-8-fluoro-imidazo[1,2-a]pyridin-3-ylethynyl]-pyridin-2-ylamine]
12 | 279 to 280 °C | Nc1ncc(C#Cc2cnc3c(F)cc(-c4ccc(Cl)cc4)cn23)cn1 [Example 242, 5-[6-(4-Chloro-phenyl)-8-fluoro-imidazo[1,2-a]pyridin-3-ylethynyl]-pyrimidin-2-ylamine]
13 | 220 to 221 °C | Nc1ncc(C#Cc2cnc3c(C(F)(F)F)cc(-c4ccc(C(F)(F)F)cc4)nn23)cn1 [Example 243, 5-[8-Trifluoromethyl-6-(4-trifluoromethyl-phenyl)-imidazo[1,2-b]pyridazin-3-ylethynyl]-pyrimidin-2-ylamine]
14 | 253 to 254 °C | CC(=O)N(C(C)=O)c1ncc(C#Cc2cnn3c(C(F)(F)F)cc(-c4ccc(C(F)(F)F)cc4)nc23)cn1 [Example 244, N-Acetyl-N-{5-[7-trifluoromethyl-5-(4-trifluoromethyl-phenyl)-pyrazolo[1,5-a]pyrimidin-3-ylethynyl]-pyrimidin-2-yl}-acetamide]
15 | 293 °C | CC(=O)Nc1ncc(C#Cc2cnn3c(C(F)(F)F)cc(-c4ccc(C(F)(F)F)cc4)nc23)cn1 [Example 245, N-{5-[7-Trifluoromethyl-5-(4-trifluoromethyl-phenyl)-pyrazolo[1,5-a]pyrimidin-3-ylethynyl]-pyrimidin-2-yl}-acetamide]
16 | 214 to 216 °C | Nc1ccc(C#Cc2cnn3c(C(F)(F)F)cc(-c4ccc(C(F)(F)F)cc4)nc23)nn1 [Example 246, 6-[7-Trifluoromethyl-5-(4-trifluoromethyl-phenyl)-pyrazolo[1,5-a]pyrimidin-3-ylethynyl]-pyridazin-3-ylamine]

Row | melting point | SMILES
17 | 247 to 248 °C | Nc1ccc(C#Cc2cnn3c(C(F)(F)F)cc(-c4ccc(Cl)cc4)nc23)nn1 [Example 247, 6-[5-(4-Chloro-phenyl)-7-trifluoromethyl-pyrazolo[1,5-a]pyrimidin-3-ylethynyl]-pyridazin-3-ylamine]
18 | 214 °C | CN1CCN(S(=O)(=O)c2ccc(C#Cc3cnn4c(C(F)F)cc(-c5cccc(C(F)(F)F)c5)nc34)s2)CC1 [Example 248, 7-Difluoromethyl-3-[5-(4-methyl-piperazine-1-sulfonyl)-thiophen-2-ylethynyl]-5-(3-trifluoromethyl-phenyl)-pyrazolo[1,5-a]pyrimidine]
19 | 191 °C | CN1CCN(S(=O)(=O)c2ccc(C#Cc3cnn4c(C(F)(F)F)cc(-c5cccc(C(F)(F)F)c5)nc34)s2)CC1 [Example 249, 3-[5-(4-Methyl-piperazine-1-sulfonyl)-thiophen-2-ylethynyl]-7-trifluoromethyl-5-(3-trifluoromethyl-phenyl)-pyrazolo[1,5-a]pyrimidine]
20 | 170 °C | CN(C)CCNS(=O)(=O)c1ccc(C#Cc2cnn3c(C(F)F)cc(-c4cccc(C(F)(F)F)c4)nc23)s1 [Example 250, 5-[7-Difluoromethyl-5-(3-trifluoromethyl-phenyl)-pyrazolo[1,5-a]pyrimidin-3-ylethynyl]-thiophene-2-sulfonic acid (2-dimethylamino-ethyl)-amide]
21 | 197 °C | CN(C)CCNS(=O)(=O)c1ccc(C#Cc2cnn3c(C(F)(F)F)cc(-c4cccc(C(F)(F)F)c4)nc23)s1 [Example 251, 5-[7-Trifluoromethyl-5-(3-trifluoromethyl-phenyl)-pyrazolo[1,5-a]pyrimidin-3-ylethynyl]-thiophene-2-sulfonic acid (2-dimethylamino-ethyl)-amide]
22 | 226 °C | CN1CCN(S(=O)(=O)c2ccc(C#Cc3cnn4c(C(F)F)cc(-c5ccc(C(F)(F)F)cc5)nc34)s2)CC1 [Example 252, 7-Difluoromethyl-3-[5-(4-methyl-piperazine-1-sulfonyl)-thiophen-2-ylethynyl]-5-(4-trifluoromethyl-phenyl)-pyrazolo[1,5-a]pyrimidine]
23 | 132 °C | CN(C)CCNS(=O)(=O)c1ccc(C#Cc2cnn3c(C(F)F)cc(-c4ccc(C(F)(F)F)cc4)nc23)s1 [Example 253, 5-[7-Difluoromethyl-5-(4-trifluoromethyl-phenyl)-pyrazolo[1,5-a]pyrimidin-3-ylethynyl]-thiophene-2-sulfonic acid (2-dimethylamino-ethyl)-amide]
24 | 164 °C | Nc1ccc(C#Cc2cnn3c(C(F)F)cc(-c4cccc(C(F)(F)F)c4)nc23)cn1 [Example 254, 5-[7-Difluoromethyl-5-(3-trifluoromethyl-phenyl)-pyrazolo[1,5-a]pyrimidin-3-ylethynyl]-pyridin-2-ylamine]
25 | 191 °C | Cc1cc(-c2cc(C(F)F)n3ncc(C#Cc4ccc(S(=O)(=O)N5CCN(C)CC5)s4)c3n2)ccc1Cl [Example 255, 5-(4-Chloro-3-methyl-phenyl)-7-difluoromethyl-3-[5-(4-methyl-piperazine-1-sulfonyl)-thiophen-2-ylethynyl]-pyrazolo[1,5-a]pyrimidine]
26 | 149 °C | Cc1cc(-c2cc(C(F)F)n3ncc(C#Cc4ccc(S(=O)(=O)NCCN(C)C)s4)c3n2)ccc1Cl [Example 256, 5-[5-(4-Chloro-3-methyl-phenyl)-7-difluoromethyl-pyrazolo[1,5-a]pyrimidin-3-ylethynyl]-thiophene-2-sulfonic acid (2-dimethylamino-ethyl)-amide]
27 | 179 °C | Cc1cc(-c2cc(C(F)(F)F)n3ncc(C#Cc4ccc(S(=O)(=O)NCCN(C)C)s4)c3n2)ccc1Cl [Example 257, 5-[5-(4-Chloro-3-methyl-phenyl)-7-trifluoromethyl-pyrazolo[1,5-a]pyrimidin-3-ylethynyl]-thiophene-2-sulfonic acid (2-dimethylamino-ethyl)-amide]
28 | 229 °C | Cc1cc(-c2cc(C(F)(F)F)n3ncc(C#Cc4ccc(S(=O)(=O)N5CCN(C)CC5)s4)c3n2)ccc1Cl [Example 258, 5-(4-Chloro-3-methyl-phenyl)-3-[5-(4-methyl-piperazine-1-sulfonyl)-thiophen-2-ylethynyl]-7-trifluoromethyl-pyrazolo[1,5-a]pyrimidine]
29 | 177 °C | Nc1ccc(C#Cc2cnn3c(C(F)(F)F)cc(-c4cccc(C(F)(F)F)c4)nc23)cn1 [Example 259, 5-[7-Trifluoromethyl-5-(3-trifluoromethyl-phenyl)-pyrazolo[1,5-a]pyrimidin-3-ylethynyl]-pyridin-2-ylamine]
30 | 223 °C | O=S(=O)(c1ccc(C#Cc2cnn3c(C(F)(F)F)cc(-c4ccc(C(F)(F)F)cc4)nc23)s1)N1CCNCC1 [Example 260, 3-[5-(piperazine-1-sulfonyl)-thiophen-2-ylethynyl]-7-trifluoromethyl-5-(4-trifluoromethyl-phenyl)-pyrazolo[1,5-a]pyrimidine]
31 | 160 °C | O=S(=O)(c1ccc(C#Cc2cnn3c(C(F)(F)F)cc(-c4cccc(C(F)(F)F)c4)nc23)s1)N1CCNCC1 [Example 261, 3-[5-(piperazine-1-sulfonyl)-thiophen-2-ylethynyl]-7-trifluoromethyl-5-(3-trifluoromethyl-phenyl)-pyrazolo[1,5-a]pyrimidine]
